Source: patent EP4745137A1 (Gluetacs Therapeutics (Shanghai) Co., Ltd., priority 2023, dated 2025)

What was measured:
[1] = target: T1, WEE1 (Homo sapiens, UniProt P30291+Q96SW2); assay: Western-blot assay of substrate protein degradation in hPBMCs, WEE1; format: cell-based; details: 24 hours of compound treatment
T1 construct: endogenous in cells; host or cells: hPBMCs (Milecell Biotechnologies)

[2] = target: T2, IKZF1 (Homo sapiens, UniProt Q13422+Q96SW2); assay: Western-blot assay of substrate protein degradation in hPBMCs, IKZF1; format: cell-based; details: 24 hours of compound treatment
T2 construct: endogenous in cells; host or cells: hPBMCs (Milecell Biotechnologies)
T2 sequence (Q13422 whole entry): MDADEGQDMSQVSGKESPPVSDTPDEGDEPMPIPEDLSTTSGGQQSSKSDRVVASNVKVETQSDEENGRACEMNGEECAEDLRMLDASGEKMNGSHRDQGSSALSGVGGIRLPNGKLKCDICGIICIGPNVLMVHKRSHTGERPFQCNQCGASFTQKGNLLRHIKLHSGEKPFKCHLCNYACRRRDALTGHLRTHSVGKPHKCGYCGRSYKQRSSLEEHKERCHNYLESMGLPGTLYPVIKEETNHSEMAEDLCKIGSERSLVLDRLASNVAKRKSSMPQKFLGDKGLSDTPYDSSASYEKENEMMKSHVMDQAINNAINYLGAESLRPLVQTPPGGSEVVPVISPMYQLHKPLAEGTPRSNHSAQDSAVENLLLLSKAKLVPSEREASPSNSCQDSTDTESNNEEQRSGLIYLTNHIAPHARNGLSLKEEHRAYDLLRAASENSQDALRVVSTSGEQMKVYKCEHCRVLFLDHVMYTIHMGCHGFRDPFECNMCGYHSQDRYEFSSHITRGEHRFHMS
T2 sequence (Q96SW2 whole entry): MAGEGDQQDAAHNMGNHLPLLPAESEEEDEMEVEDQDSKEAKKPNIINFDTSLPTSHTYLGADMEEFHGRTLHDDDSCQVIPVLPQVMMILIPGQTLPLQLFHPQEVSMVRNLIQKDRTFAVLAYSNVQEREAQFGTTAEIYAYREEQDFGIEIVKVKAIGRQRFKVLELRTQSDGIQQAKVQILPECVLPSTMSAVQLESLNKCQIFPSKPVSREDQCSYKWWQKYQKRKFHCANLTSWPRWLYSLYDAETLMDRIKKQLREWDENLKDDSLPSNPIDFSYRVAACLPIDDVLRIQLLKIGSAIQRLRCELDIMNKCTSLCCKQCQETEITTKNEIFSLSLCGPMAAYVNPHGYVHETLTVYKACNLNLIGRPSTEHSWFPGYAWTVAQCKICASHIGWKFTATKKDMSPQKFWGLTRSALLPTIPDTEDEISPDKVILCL
T2 sequence (Q16531 whole entry partner): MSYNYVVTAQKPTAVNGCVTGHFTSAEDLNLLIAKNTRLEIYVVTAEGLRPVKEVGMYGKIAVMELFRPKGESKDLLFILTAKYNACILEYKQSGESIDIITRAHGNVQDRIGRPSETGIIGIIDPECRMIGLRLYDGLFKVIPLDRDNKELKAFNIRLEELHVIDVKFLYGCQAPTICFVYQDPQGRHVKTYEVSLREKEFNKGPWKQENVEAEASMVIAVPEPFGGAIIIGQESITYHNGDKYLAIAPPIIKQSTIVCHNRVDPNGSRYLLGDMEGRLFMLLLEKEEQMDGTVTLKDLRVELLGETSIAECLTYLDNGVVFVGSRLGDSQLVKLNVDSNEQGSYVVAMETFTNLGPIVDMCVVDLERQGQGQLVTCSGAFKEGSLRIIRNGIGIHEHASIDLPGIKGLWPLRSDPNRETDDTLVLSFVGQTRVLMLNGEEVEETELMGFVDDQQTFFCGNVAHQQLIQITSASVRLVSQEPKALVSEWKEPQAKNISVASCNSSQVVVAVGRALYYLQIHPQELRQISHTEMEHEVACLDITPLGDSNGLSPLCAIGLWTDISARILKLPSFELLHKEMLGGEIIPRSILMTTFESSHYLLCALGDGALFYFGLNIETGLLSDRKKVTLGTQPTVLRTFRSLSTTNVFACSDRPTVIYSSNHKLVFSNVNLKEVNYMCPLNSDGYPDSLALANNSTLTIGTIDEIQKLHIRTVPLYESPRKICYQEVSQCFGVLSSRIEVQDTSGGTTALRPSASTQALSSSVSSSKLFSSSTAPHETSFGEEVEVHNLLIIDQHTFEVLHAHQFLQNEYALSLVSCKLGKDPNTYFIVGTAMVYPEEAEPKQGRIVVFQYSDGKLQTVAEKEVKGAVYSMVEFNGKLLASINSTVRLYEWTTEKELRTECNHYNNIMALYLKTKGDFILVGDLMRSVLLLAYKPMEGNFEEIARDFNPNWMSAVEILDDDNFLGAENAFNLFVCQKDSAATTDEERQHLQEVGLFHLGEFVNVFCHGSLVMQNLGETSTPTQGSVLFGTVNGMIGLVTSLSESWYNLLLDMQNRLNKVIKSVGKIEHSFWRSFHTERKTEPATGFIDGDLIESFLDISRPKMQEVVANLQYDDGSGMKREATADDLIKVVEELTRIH

[3] = target: T3, IKZF2 (Homo sapiens, UniProt Q96SW2+Q9UKS7); assay: Western-blot assay of substrate protein degradation in hPBMCs, IKZF2; format: cell-based; details: 24 hours of compound treatment
T3 construct: endogenous in cells; host or cells: hPBMCs (Milecell Biotechnologies)
T3 sequence (Q9UKS7 whole entry): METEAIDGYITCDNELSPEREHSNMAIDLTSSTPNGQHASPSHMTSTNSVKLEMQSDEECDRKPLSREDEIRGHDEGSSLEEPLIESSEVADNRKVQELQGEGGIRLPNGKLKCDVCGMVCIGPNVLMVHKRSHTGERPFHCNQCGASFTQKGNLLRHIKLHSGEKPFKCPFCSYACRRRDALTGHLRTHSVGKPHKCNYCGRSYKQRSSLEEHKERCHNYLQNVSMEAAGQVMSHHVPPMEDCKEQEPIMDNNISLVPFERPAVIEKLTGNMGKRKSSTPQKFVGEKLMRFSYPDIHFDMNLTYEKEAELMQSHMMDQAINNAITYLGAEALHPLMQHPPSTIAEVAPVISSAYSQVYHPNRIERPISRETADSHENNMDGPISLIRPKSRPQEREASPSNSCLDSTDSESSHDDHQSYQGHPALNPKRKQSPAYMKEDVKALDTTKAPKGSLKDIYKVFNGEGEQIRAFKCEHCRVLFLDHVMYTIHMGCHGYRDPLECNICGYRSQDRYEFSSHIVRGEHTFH
T3 sequence (Q96SW2 whole entry): as the sequence (Q96SW2 whole entry) above
T3 sequence (Q16531 whole entry partner): as the sequence (Q16531 whole entry partner) above

[4] = target: T4, IKZF3 (Homo sapiens, UniProt Q96SW2+Q9UKT9); assay: Western-blot assay of substrate protein degradation in hPBMCs, IKZF3; format: cell-based; details: 24 hours of compound treatment
T4 construct: endogenous in cells; host or cells: hPBMCs (Milecell Biotechnologies)
T4 sequence (Q9UKT9 whole entry): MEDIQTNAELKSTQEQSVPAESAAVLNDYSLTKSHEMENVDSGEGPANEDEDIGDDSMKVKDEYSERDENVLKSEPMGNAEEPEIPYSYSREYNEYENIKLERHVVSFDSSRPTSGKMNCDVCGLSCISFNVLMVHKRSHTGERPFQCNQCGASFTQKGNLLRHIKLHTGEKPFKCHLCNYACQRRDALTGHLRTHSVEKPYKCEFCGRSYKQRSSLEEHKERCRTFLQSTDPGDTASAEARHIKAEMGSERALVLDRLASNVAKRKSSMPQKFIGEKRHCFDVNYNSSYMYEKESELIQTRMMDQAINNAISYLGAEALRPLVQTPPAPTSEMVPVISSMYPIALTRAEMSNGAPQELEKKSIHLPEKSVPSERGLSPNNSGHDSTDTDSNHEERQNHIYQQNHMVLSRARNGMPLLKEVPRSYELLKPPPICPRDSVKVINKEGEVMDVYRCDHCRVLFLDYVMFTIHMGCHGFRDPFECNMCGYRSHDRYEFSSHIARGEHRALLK
T4 sequence (Q96SW2 whole entry): as the sequence (Q96SW2 whole entry) above
T4 sequence (Q16531 whole entry partner): as the sequence (Q16531 whole entry partner) above

[5] = target: T5, CK1α (Homo sapiens, UniProt P48729+Q96SW2); assay: Western-blot assay of substrate protein degradation in hPBMCs, CK1α; format: cell-based; details: 24 hours of compound treatment
T5 construct: endogenous in cells; host or cells: hPBMCs (Milecell Biotechnologies)
T5 sequence (P48729 whole entry): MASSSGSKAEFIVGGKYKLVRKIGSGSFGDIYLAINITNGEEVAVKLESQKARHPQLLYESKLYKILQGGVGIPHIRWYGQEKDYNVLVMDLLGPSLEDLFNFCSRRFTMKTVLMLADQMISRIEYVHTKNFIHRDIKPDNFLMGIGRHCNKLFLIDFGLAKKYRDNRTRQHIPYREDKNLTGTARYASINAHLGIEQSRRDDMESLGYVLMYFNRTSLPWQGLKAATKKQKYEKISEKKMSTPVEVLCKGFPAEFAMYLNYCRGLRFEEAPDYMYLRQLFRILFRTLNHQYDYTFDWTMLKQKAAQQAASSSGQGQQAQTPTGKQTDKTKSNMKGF
T5 sequence (Q96SW2 whole entry): as the sequence (Q96SW2 whole entry) above
T5 sequence (Q16531 whole entry partner): as the sequence (Q16531 whole entry partner) above

[6] = target: T6, GSPT1 (Homo sapiens, UniProt P15170+Q96SW2); assay: Western-blot assay of substrate protein degradation in hPBMCs, GSPT1; format: cell-based; details: 24 hours of compound treatment
T6 construct: endogenous in cells; host or cells: hPBMCs (Milecell Biotechnologies)

[7] = target: T7, human Cereblon WT GST-tagged protein (Homo sapiens, UniProt Q96SW2); assay: CRBN-binding affinity by HTRF (CEREBLON BINDING kit); details: HTRF inhibitory activity, CEREBLON BINDING kit; read-out: HTRF IC50
T7 construct: purchased CISBIO 64BDCRBNPEH
T7 sequence (Q96SW2 whole entry): as the sequence (Q96SW2 whole entry) above

[8] = test system: SR; assay: Tumor cell proliferation inhibition (CellTiter-Meiluncell Luminescent Cell Viability Assay), SR; details: Homo sapiens, read-out: inhibitory activity (IC50, nM) against tumor cells proliferation, SR
[9] = test system: MM.1S; assay: Tumor cell proliferation inhibition (CellTiter-Meiluncell Luminescent Cell Viability Assay), MM.1S; details: Homo sapiens, MM1.S, read-out: inhibitory activity (IC50, nM) against tumor cells proliferation, MM.1S
Description: (§1) The tumor cells used herein were cultured in a cell culture medium listed in table 2 at 37°C in an incubator with 5% CO2. Prior to experimentation, all cell lines used were correctly identified by STR profiling, and tested negative for mycoplasma contamination using a mycoplasma detection kit through routine screenings.
(§2) On the following day, the test compounds of the present disclosure were subjected to serial dilution. […] Subsequently, 0.5 µL of the test compound dilution was transferred into the 96-well plate containing the cells, with each well containing 100 µL of cell culture medium. […] Into the 96-well plate, the diluted test compounds and corresponding detection reagents were added, resulting in final test compound concentrations of 500 nM and 10 nM, respectively.
(§3) After the cells were treated with the compounds of the present disclosure for a specified period (the treatment durations were shown in Table 3), the cell viability assay reagent was added to the culture medium according to the kit's instructions to determine cell viability. […] All controls were treated using the same procedure as the compounds of the present disclosure. The growth inhibition curves for the compounds of the present disclosure were plotted using Prism GraphPad software, and the IC50 values were calculated therefrom.

[10] = test system: Jurkat; assay: Tumor cell proliferation inhibition (CellTiter-Meiluncell Luminescent Cell Viability Assay), Jurkat; details: Homo sapiens, read-out: inhibitory activity (IC50, nM) against tumor cells proliferation, Jurkat
[11] = test system: NCI-H1975; assay: Tumor cell proliferation inhibition (CellTiter-Meiluncell Luminescent Cell Viability Assay), NCI-H1975; details: Homo sapiens, NCI-H1975, read-out: inhibitory activity (IC50, nM) against tumor cells proliferation, H1975
[12] = test system: Human acute T lymphocytic leukemia cells (Molt-4); assay: Tumor cell proliferation inhibition (CellTiter-Meiluncell Luminescent Cell Viability Assay), Molt-4; details: MOLT-4, read-out: inhibitory activity (IC50, nM) against tumor cells proliferation, Molt-4
[13] = test system: MV-4-11; assay: Tumor cell proliferation inhibition (CellTiter-Meiluncell Luminescent Cell Viability Assay), MV-4-11; details: Homo sapiens, MV4-11, read-out: inhibitory activity (IC50, nM) against tumor cells proliferation, MV-4-11
Description: as §1, §2, §3

[14] = test system: CCRF-CEM; assay: Tumor cell proliferation inhibition (CellTiter-Meiluncell Luminescent Cell Viability Assay), CCRF-CEM; details: Homo sapiens, read-out: inhibitory activity (IC50, nM) against tumor cells proliferation, CCRF-CEM
[15] = compounds tested at 50 nM and 500 nM (concentration of the table not stated)
[16] = 50 nM and 500 nM tested (concentration behind the class not stated)

T1 sequence (P30291 whole entry): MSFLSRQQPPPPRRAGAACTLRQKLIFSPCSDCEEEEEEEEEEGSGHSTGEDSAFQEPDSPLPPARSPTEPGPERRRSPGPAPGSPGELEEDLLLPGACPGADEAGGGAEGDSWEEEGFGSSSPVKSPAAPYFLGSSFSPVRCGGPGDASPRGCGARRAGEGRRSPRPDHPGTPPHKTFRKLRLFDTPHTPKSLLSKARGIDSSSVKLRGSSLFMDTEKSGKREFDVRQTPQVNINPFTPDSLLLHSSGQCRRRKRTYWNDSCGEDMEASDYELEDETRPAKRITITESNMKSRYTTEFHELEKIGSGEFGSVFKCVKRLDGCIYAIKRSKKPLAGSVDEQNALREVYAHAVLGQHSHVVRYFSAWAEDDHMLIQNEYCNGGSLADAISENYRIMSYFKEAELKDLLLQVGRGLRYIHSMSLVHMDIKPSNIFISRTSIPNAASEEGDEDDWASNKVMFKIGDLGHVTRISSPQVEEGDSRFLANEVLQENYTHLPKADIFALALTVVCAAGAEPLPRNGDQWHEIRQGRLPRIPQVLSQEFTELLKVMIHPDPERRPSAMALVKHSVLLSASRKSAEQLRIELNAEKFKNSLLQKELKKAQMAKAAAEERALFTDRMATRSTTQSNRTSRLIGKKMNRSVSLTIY
T1 sequence (Q96SW2 whole entry): as the sequence (Q96SW2 whole entry) above
T1 sequence (Q16531 whole entry partner): as the sequence (Q16531 whole entry partner) above

SMILES: Cn1cc(C2CCN(Cc3ccc4c(c3)CN(C3CCC(=O)NC3=O)C4=O)CC2)c2ccc(F)cc21 (centres unmarked) [GT-04858, 3-(5-((4-(6-fluoro-1-methyl-1H-indol-3-yl)piperidin-1-yl)methyl)-1-oxoisoindolin-2-yl)piperidine-2,6-dione]
- Weel substrate protein remaining % [1, 15]: A (0% ≤ substrate protein remaining % ≤ 80%)
- IKZF 1 substrate protein remaining % [2, 15]: A (0% ≤ substrate protein remaining % ≤ 80%)
- IKZF2 substrate protein remaining % [3, 15]: A (0% ≤ substrate protein remaining % ≤ 80%)
- IKZF3 substrate protein remaining % [4, 15]: A (0% ≤ substrate protein remaining % ≤ 80%)
- CK1a substrate protein remaining % [5, 15]: B (80%< substrate protein remaining %≤ 100%)
- GSPT1 substrate protein remaining % [6, 15]: A (0% ≤ substrate protein remaining % ≤ 80%)
- IC50 [7]: < 500 nM
- IC50 [8]: 5 to 10 nM
- IC50 [9]: < 1 nM
- IC50 [10]: 1 to 5 nM
- IC50 [11]: 1 to 5 nM

SMILES: O=C1CCC(N2Cc3cc(CN4CC=C(c5cccc6c(F)cccc56)CC4)ccc3C2=O)C(=O)N1 (centres unmarked) [GT-04902, 3-(5-((4-(5-fluoronaphthalen-1-yl)-3,6-dihydropyridin-1(2H)-yl)methyl)-1-oxoisoindolin-2-yl)piperidine-2,6-dione]
- Weel substrate protein remaining % [1, 15]: A (0% ≤ substrate protein remaining % ≤ 80%)
- IKZF 1 substrate protein remaining % [2, 15]: A (0% ≤ substrate protein remaining % ≤ 80%)
- IKZF2 substrate protein remaining % [3, 15]: A (0% ≤ substrate protein remaining % ≤ 80%)
- IKZF3 substrate protein remaining % [4, 15]: A (0% ≤ substrate protein remaining % ≤ 80%)
- CK1a substrate protein remaining % [5, 15]: A (0% ≤ substrate protein remaining % ≤ 80%)
- GSPT1 substrate protein remaining % [6, 15]: A (0% ≤ substrate protein remaining % ≤ 80%)
- IC50 [7]: < 500 nM
- IC50 [8]: 5 to 10 nM
- IC50 [9]: < 1 nM
- IC50 [10]: 1 to 5 nM
- IC50 [11]: 1 to 5 nM

SMILES: O=C1CCC(N2Cc3cc(CN4CC=C(c5ncnc6sc7c(c56)CCC7)CC4)ccc3C2=O)C(=O)N1 (centres unmarked) [GT-04934, 3-(5-((4-(6,7-dihydro-5H-cyclopenta[4,5]thieno[2,3-d]pyrimidin-4-yl)-3,6-dihydropyridin-1(2H)-yl)methyl)-1-oxoisoindolin-2-yl)piperidine-2,6-dione]
- Weel substrate protein remaining % [1, 15]: A (0% ≤ substrate protein remaining % ≤ 80%)
- IKZF 1 substrate protein remaining % [2, 15]: A (0% ≤ substrate protein remaining % ≤ 80%)
- IKZF2 substrate protein remaining % [3, 15]: A (0% ≤ substrate protein remaining % ≤ 80%)
- IKZF3 substrate protein remaining % [4, 15]: A (0% ≤ substrate protein remaining % ≤ 80%)
- CK1a substrate protein remaining % [5, 15]: A (0% ≤ substrate protein remaining % ≤ 80%)
- GSPT1 substrate protein remaining % [6, 15]: A (0% ≤ substrate protein remaining % ≤ 80%)
- IC50 [7]: < 500 nM
- IC50 [8]: 100 to 500 nM
- IC50 [9]: < 1 nM
- IC50 [10]: 10 to 50 nM
- IC50 [11]: 50 to 100 nM

SMILES: CC(C)c1cc2c(C3=CCN(Cc4ccc5c(c4)CN(C4CCC(=O)NC4=O)C5=O)CC3)ncnc2s1 (centres unmarked) [GT-04935, 3-(5-((4-(6-isopropylthieno[2,3-d]pyrimidin-4-yl)-3,6-dihydropyridin-1(2H)-yl)methyl)-1-oxoisoindolin-2-yl)piperidine-2,6-dione]
- Weel substrate protein remaining % [1, 15]: A (0% ≤ substrate protein remaining % ≤ 80%)
- IKZF 1 substrate protein remaining % [2, 15]: A (0% ≤ substrate protein remaining % ≤ 80%)
- IKZF2 substrate protein remaining % [3, 15]: A (0% ≤ substrate protein remaining % ≤ 80%)
- IKZF3 substrate protein remaining % [4, 15]: A (0% ≤ substrate protein remaining % ≤ 80%)
- CK1a substrate protein remaining % [5, 15]: A (0% ≤ substrate protein remaining % ≤ 80%)
- GSPT1 substrate protein remaining % [6, 15]: A (0% ≤ substrate protein remaining % ≤ 80%)
- IC50 [7]: < 500 nM
- IC50 [8]: 10 to 50 nM
- IC50 [9]: < 1 nM
- IC50 [10]: 1 to 5 nM
- IC50 [11]: 1 to 5 nM

SMILES: O=C1CCC(N2Cc3cc(CN4CC=C(c5ncnc6sc(-c7ccccc7)cc56)CC4)ccc3C2=O)C(=O)N1 (centres unmarked) [GT-05101, 3-(1-oxo-5-((4-(6-phenylthieno[2,3-d]pyrimidin-4-yl)-3,6-dihydropyridin-1(2H)-yl)methyl)isoindolin-2-yl)piperidine-2,6-dione]
- Weel substrate protein remaining % [1, 15]: A (0% ≤ substrate protein remaining % ≤ 80%)
- IKZF 1 substrate protein remaining % [2, 15]: A (0% ≤ substrate protein remaining % ≤ 80%)
- IKZF2 substrate protein remaining % [3, 15]: A (0% ≤ substrate protein remaining % ≤ 80%)
- IKZF3 substrate protein remaining % [4, 15]: A (0% ≤ substrate protein remaining % ≤ 80%)
- CK1a substrate protein remaining % [5, 15]: B (80%< substrate protein remaining %≤ 100%)
- GSPT1 substrate protein remaining % [6, 15]: A (0% ≤ substrate protein remaining % ≤ 80%)
- IC50 [7]: 500 to 1000 nM
- IC50 [8]: 5 to 10 nM
- IC50 [9]: < 1 nM
- IC50 [10]: 1 to 5 nM
- IC50 [11]: 1 to 5 nM

SMILES: O=C1CCC(N2C(=O)c3ccc(CN4CCC(c5c[nH]c6cc(F)ccc56)CC4)cc3C2=O)C(=O)N1 (centres unmarked) [GT-06633, 2-(2,6-dioxopiperidin-3-yl)-5-((4-(6-fluoro-1H-indol-3-yl)piperidin-1-yl)methyl)isoindoline-1,3-dione]
- Weel substrate protein remaining % [1, 16]: A (0% ≤ substrate protein remaining % ≤ 80%)
- IKZF 1 substrate protein remaining % [2, 16]: A (0% ≤ substrate protein remaining % ≤ 80%)
- IKZF2 substrate protein remaining % [3, 16]: A (0% ≤ substrate protein remaining % ≤ 80%)
- IKZF3 substrate protein remaining % [4, 16]: A (0% ≤ substrate protein remaining % ≤ 80%)
- CK1a substrate protein remaining % [5, 16]: A (0% ≤ substrate protein remaining % ≤ 80%)
- GSPT1 substrate protein remaining % [6, 16]: A (0% ≤ substrate protein remaining % ≤ 80%)
- IC50 [9]: 100 to 500 nM
- IC50 [10]: 100 to 500 nM
- IC50 [12]: 100 to 500 nM
- IC50 [13]: 50 to 100 nM
- IC50 [14]: 100 to 500 nM

SMILES: Cn1cc(C2CCN(Cc3ccc4c(c3)C(=O)N(C3CCC(=O)NC3=O)C4=O)CC2)c2ccc(F)cc21 (centres unmarked) [GT-06635, 2-(2,6-dioxopiperidin-3-yl)-5-((4-(6-fluoro-1-methyl-1H-indol-3-yl)piperidin-1-yl)methyl)isoindoline-1,3-dione]
- Weel substrate protein remaining % [1, 16]: A (0% ≤ substrate protein remaining % ≤ 80%)
- IKZF 1 substrate protein remaining % [2, 16]: A (0% ≤ substrate protein remaining % ≤ 80%)
- IKZF2 substrate protein remaining % [3, 16]: A (0% ≤ substrate protein remaining % ≤ 80%)
- IKZF3 substrate protein remaining % [4, 16]: A (0% ≤ substrate protein remaining % ≤ 80%)
- CK1a substrate protein remaining % [5, 16]: A (0% ≤ substrate protein remaining % ≤ 80%)
- GSPT1 substrate protein remaining % [6, 16]: A (0% ≤ substrate protein remaining % ≤ 80%)
- IC50 [9]: 100 to 500 nM
- IC50 [10]: 100 to 500 nM
- IC50 [12]: 50 to 100 nM
- IC50 [13]: 10 to 50 nM
- IC50 [14]: 50 to 100 nM

SMILES: O=C1CCC(N2C(=O)c3ccc(CN4CC=C(c5ncnc6sc7c(c56)CCCC7)CC4)cc3C2=O)C(=O)N1 (centres unmarked) [GT-06680, 2-(2,6-dioxopiperidin-3-yl)-5-((4-(5,6,7,8-tetrahydrobenzo[4,5]thieno[2,3-d]pyrimidin-4-yl)-3,6-dihydropyridin-1(2H)-yl)methyl)isoindoline-1,3-dione]
- Weel substrate protein remaining % [1, 16]: A (0% ≤ substrate protein remaining % ≤ 80%)
- IKZF 1 substrate protein remaining % [2, 16]: A (0% ≤ substrate protein remaining % ≤ 80%)
- IKZF2 substrate protein remaining % [3, 16]: A (0% ≤ substrate protein remaining % ≤ 80%)
- IKZF3 substrate protein remaining % [4, 16]: A (0% ≤ substrate protein remaining % ≤ 80%)
- CK1a substrate protein remaining % [5, 16]: B (80%< substrate protein remaining %≤ 100%)
- GSPT1 substrate protein remaining % [6, 16]: A (0% ≤ substrate protein remaining % ≤ 80%)
- IC50 [7]: 1500 to 1900 nM
- IC50 [9]: 100 to 500 nM
- IC50 [12]: 100 to 500 nM
- IC50 [13]: 10 to 50 nM
- IC50 [14]: 100 to 500 nM

SMILES: Cc1ccc(Sc2ccccc2N2CCN(Cc3ccc4c(c3)C(=O)N(C3CCC(=O)NC3=O)C4=O)CC2)c(C)c1 (centres unmarked) [GT-06761, 5-((4-(2-((2,4-dimethylphenyl)thio)phenyl)piperazin-1-yl)methyl)-2-(2,6-dioxopiperidin-3-yl)isoindoline-1,3-dione]
- Weel substrate protein remaining % [1, 16]: A (0% ≤ substrate protein remaining % ≤ 80%)
- IKZF 1 substrate protein remaining % [2, 16]: A (0% ≤ substrate protein remaining % ≤ 80%)
- IKZF2 substrate protein remaining % [3, 16]: A (0% ≤ substrate protein remaining % ≤ 80%)
- IKZF3 substrate protein remaining % [4, 16]: A (0% ≤ substrate protein remaining % ≤ 80%)
- CK1a substrate protein remaining % [5, 16]: A (0% ≤ substrate protein remaining % ≤ 80%)
- GSPT1 substrate protein remaining % [6, 16]: A (0% ≤ substrate protein remaining % ≤ 80%)
- IC50 [9]: 100 to 500 nM
- IC50 [12]: 100 to 500 nM
- IC50 [13]: 10 to 50 nM
- IC50 [14]: 100 to 500 nM
